From US7700592B2, “α2C adrenoreceptor agonists” (Schering Corporation, priority 2005, dated 2010)

Biological target: T1, α2C receptor (Homo sapiens, UniProt P18825)
T1 sequence (P18825 1-462): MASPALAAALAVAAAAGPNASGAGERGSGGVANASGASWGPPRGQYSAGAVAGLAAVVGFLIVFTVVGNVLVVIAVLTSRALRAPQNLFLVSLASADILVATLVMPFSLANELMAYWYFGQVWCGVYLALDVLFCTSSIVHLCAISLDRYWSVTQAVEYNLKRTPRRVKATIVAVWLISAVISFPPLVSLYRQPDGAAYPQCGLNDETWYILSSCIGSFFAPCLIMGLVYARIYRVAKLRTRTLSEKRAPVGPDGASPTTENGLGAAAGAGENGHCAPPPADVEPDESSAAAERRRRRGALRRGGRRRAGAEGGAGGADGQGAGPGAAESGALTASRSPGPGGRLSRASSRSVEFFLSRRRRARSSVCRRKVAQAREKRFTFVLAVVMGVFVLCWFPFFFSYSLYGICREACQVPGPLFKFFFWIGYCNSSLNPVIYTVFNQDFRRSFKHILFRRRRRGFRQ
Test: GTPγS assay, efficacy agonist activity (Emax) for α2C
Assay type: biochemical
Details: active agonist = efficacy at α2C ≧30% Emax; functionally selective = additionally efficacy at α2A ≦30% Emax (GTPγS assay)
Text: For the purposes of this present invention, a compound is defined to be an active agonist of the α2C receptor subtype if the compound's efficacy at the α2C receptor is ≧30% Emax (GTPγS assay). A compound is a functionally selective agonist of the α2C receptor subtype over the α2A receptor subtype if the compound's efficacy at the α2C receptor is ≧30% Emax (GTPγS assay) and its efficacy at the α2A receptor is ≦30% Emax (GTPγS assay).
Efficacy agonist activity values (Emax, GTPγS assay) for α2C were determined by following the general procedure detailed by Umland et al (“Receptor reserve analysis of the human α2c-adrenoceptor using [^35S]GTPγS and cAMP functional assays” European Journal of Pharmacology 2001, 411, 211-221). For the purposes of the present invention, a compound is defined to be an active agonist of the α2C receptor subtype if the compound's efficacy at the α2C receptor is ≧30% Emax (GTPγS assay). A compound is a functionally selective agonist of the α2C receptor subtype over the α2A receptor subtype if the compound's efficacy at the α2C receptor is […] Emax (GTPγS assay) and its efficacy at the α2A receptor is ≦30% Emax (GTPγS assay).

SMILES | Efficacy agonist activity (Emax, GTPγS assay) for α2C: evaluated as active or functionally selective agonist
CCN(C(=O)NOC)c1ccc2c(c1)N(Cc1c[nH]cn1)CCO2 [Compound 244] | active or functionally selective agonists of the α2C receptor subtype
CCNC(=O)N(CC)c1ccc2c(c1)N(Cc1c[nH]cn1)CCO2 [Compound 245] | active or functionally selective agonists of the α2C receptor subtype
COCCCOC(=O)Nc1ccc2c(c1)N(Cc1c[nH]cn1)CCO2 [Compound 246] | active or functionally selective agonists of the α2C receptor subtype
N#CCCOC(=O)Nc1ccc2c(c1)N(Cc1c[nH]cn1)CCO2 [Compound 247] | active or functionally selective agonists of the α2C receptor subtype
N#Cc1ccc(COC(=O)Nc2ccc3c(c2)N(Cc2c[nH]cn2)CCO3)cc1 [Compound 248] | active or functionally selective agonists of the α2C receptor subtype
CSCCOC(=O)Nc1ccc2c(c1)N(Cc1c[nH]cn1)CCO2 [Compound 249] | active or functionally selective agonists of the α2C receptor subtype
CS(=O)(=O)CCOC(=O)Nc1ccc2c(c1)N(Cc1c[nH]cn1)CCO2 [Compound 250] | active or functionally selective agonists of the α2C receptor subtype
CCN(C(=O)C#CC1CC1)c1ccc2c(c1)N(Cc1c[nH]cn1)CCO2 [Compound 251] | active or functionally selective agonists of the α2C receptor subtype
N#Cc1cc(Cl)c2c(c1)N(Cc1c[nH]cn1)CCO2 [Compound 253] | active or functionally selective agonists of the α2C receptor subtype
CCCCOC(=O)N(C)c1ccc2c(c1)N(Cc1c[nH]cn1)CCO2 [Compound 256] | active or functionally selective agonists of the α2C receptor subtype
CCCOC(=O)N(C)c1ccc2c(c1)N(Cc1c[nH]cn1)CCO2 [Compound 257] | active or functionally selective agonists of the α2C receptor subtype
CN(C(=O)CCCOc1ccccc1)c1ccc2c(c1)N(Cc1c[nH]cn1)CCO2 [Compound 259] | active or functionally selective agonists of the α2C receptor subtype
COCCOCC(=O)N(C)c1ccc2c(c1)N(Cc1c[nH]cn1)CCO2 [Compound 260] | active or functionally selective agonists of the α2C receptor subtype
CC#CCOC(=O)N(C)c1ccc2c(c1)N(Cc1c[nH]cn1)CCO2 [Compound 262] | active or functionally selective agonists of the α2C receptor subtype
CCCCCCOC(=O)N(C)c1ccc2c(c1)N(Cc1c[nH]cn1)CCO2 [Compound 263] | active or functionally selective agonists of the α2C receptor subtype
CCCOC(=O)N(CC)c1ccc2c(c1)N(Cc1c[nH]cn1)CCO2 [Compound 264] | active or functionally selective agonists of the α2C receptor subtype
CCCCOC(=O)N(CC)c1ccc2c(c1)N(Cc1c[nH]cn1)CCO2 [Compound 265] | active or functionally selective agonists of the α2C receptor subtype
C=CCS(=O)(=O)Nc1ccc2c(c1)N(Cc1c[nH]cn1)CCO2 [Compound 266] | active or functionally selective agonists of the α2C receptor subtype
CCCOC(=O)Nc1ccc2c(c1)N(Cc1c[nH]cn1)CCO2 [Compound 271] | active or functionally selective agonists of the α2C receptor subtype
CCCCOC(=O)Nc1ccc2c(c1)N(Cc1c[nH]cn1)CCO2 [Compound 272] | active or functionally selective agonists of the α2C receptor subtype

SMILES | Efficacy agonist activity (Emax, GTPγS assay) for α2C: evaluated as active or functionally selective agonist
CCCCCCNC(=O)N(C)c1ccc2c(c1)N(Cc1c[nH]cn1)CCO2 [Compound 273] | active or functionally selective agonists of the α2C receptor subtype
CCN(C(=O)NCc1ccco1)c1ccc2c(c1)N(Cc1c[nH]cn1)CCO2 [Compound 274] | active or functionally selective agonists of the α2C receptor subtype
CCN(C(=O)OCc1cccnc1)c1ccc2c(c1)N(Cc1c[nH]cn1)CCO2 [Compound 275] | active or functionally selective agonists of the α2C receptor subtype
CCN(C(=O)OCc1ccncc1)c1ccc2c(c1)N(Cc1c[nH]cn1)CCO2 [Compound 276] | active or functionally selective agonists of the α2C receptor subtype
CCN(C(=O)OCc1cc(C)on1)c1ccc2c(c1)N(Cc1c[nH]cn1)CCO2 [Compound 278] | active or functionally selective agonists of the α2C receptor subtype
CCN(C(=O)OCc1ccncc1N)c1ccc2c(c1)N(Cc1c[nH]cn1)CCO2 [Compound 279] | active or functionally selective agonists of the α2C receptor subtype
CCN(C(=O)NCc1ccccc1)c1ccc2c(c1)N(Cc1c[nH]cn1)CCO2 [Compound 280] | active or functionally selective agonists of the α2C receptor subtype
CCN(C(=O)OCc1cnc(N)nc1)c1ccc2c(c1)N(Cc1c[nH]cn1)CCO2 [Compound 281] | active or functionally selective agonists of the α2C receptor subtype
CCN(C(=O)OCc1cn(C)cn1)c1ccc2c(c1)N(Cc1c[nH]cn1)CCO2 [Compound 287] | active or functionally selective agonists of the α2C receptor subtype
CCN(C(=O)OCc1cn2ccsc2n1)c1ccc2c(c1)N(Cc1c[nH]cn1)CCO2 [Compound 289] | active or functionally selective agonists of the α2C receptor subtype
CCN(C(=O)OCc1cn2ccccc2n1)c1ccc2c(c1)N(Cc1c[nH]cn1)CCO2 [Compound 290] | active or functionally selective agonists of the α2C receptor subtype
O=C(NCc1ccccn1)Nc1ccc2c(c1)N(Cc1c[nH]cn1)CCO2 [Compound 291] | active or functionally selective agonists of the α2C receptor subtype
O=C(NCCc1cccs1)Nc1ccc2c(c1)N(Cc1c[nH]cn1)CCO2 [Compound 297] | active or functionally selective agonists of the α2C receptor subtype
O=C(Nc1ccc2c(c1)N(Cc1c[nH]cn1)CCO2)OCCOc1ccccc1 [Compound 304] | active or functionally selective agonists of the α2C receptor subtype
O=C(Nc1ccc2c(c1)N(Cc1c[nH]cn1)CCO2)OCc1ccc(F)cc1 [Compound 305] | active or functionally selective agonists of the α2C receptor subtype
O=C(Nc1ccc2c(c1)N(Cc1c[nH]cn1)CCO2)OCc1cccc(F)c1 [Compound 306] | active or functionally selective agonists of the α2C receptor subtype
O=C(NCc1ccc(F)cc1)Nc1ccc2c(c1)N(Cc1c[nH]cn1)CCO2 [Compound 307] | active or functionally selective agonists of the α2C receptor subtype
O=C(NCc1cccc(F)c1)Nc1ccc2c(c1)N(Cc1c[nH]cn1)CCO2 [Compound 308] | active or functionally selective agonists of the α2C receptor subtype
CS(=O)(=O)c1ccc(COC(=O)Nc2ccc3c(c2)N(Cc2c[nH]cn2)CCO3)cc1 [Compound 309] | active or functionally selective agonists of the α2C receptor subtype
O=C(Nc1ccc2c(c1)N(Cc1c[nH]cn1)CCO2)OCc1nccs1 [Compound 310] | active or functionally selective agonists of the α2C receptor subtype
